US9428519B2, “Acylated derivative of homoharringtonine, preparation method therefor, and application thereof” (HANGZHOU BENSHENG PHARMACEUTICAL CO., LTD., priority 2011, dated 2016)
Converted amounts (≈) assume the structure as drawn. “Also recorded” adds a separate entry of the source.

Key:
[1] = system: MGC-803 transplanted tumor of gastric cancer; test: Inhibition of transplanted tumor of gastric cancer in BALB/c-nu nude mice; assay type: in vivo; conditions: for Mass of tumor / Tumor Inhibition rate (%): MGC-803 in BALB/c-nu nude mice, 10 days, Day 27
Experimental: Gastric cancer cell lines: MGC-803
Animal: BALB/c-nu nude mice, 8 weeks, female, purchased from Shanghai Laboratory Animal Center of Chinese Academy of Sciences, China.
BS-HH-002, wherein BS-HH-002-0.1 indicates a dosage of 0.1 mg/kg each time, BS-HH-002-0.3 indicates a dosage of 0.3 mg/kg each time, BS-HH-002-0.5 indicates a dosage of 0.5 mg/kg each time, and BS-HH-002-1.0 indicates a dosage of 1.0 mg/kg each time.
Under sterile conditions, the above tumor cells in logarithmic growth phase are collected and injected in an amount of 2×10^7/0.2 ml/nude mice (cell viability>95%) into the right subaxillary of the nude mice by subcutaneous injection, thus establishing a BALB/c-nu nude mice model bearing transplanted tumor of gastric cancer. The mice are administered on the third day after the inoculation, wherein the experimental groups are intragastrically administered in an experimentally designed amount, and the negative control group is intragastrically administered with sterile water. Administration takes place at 8:00 for one time a day, at 8:00 and 14:00 for twice a day, and at 8:00, 14:00 and 20:00 with 6-hour intervals for three times day. The administrations are successive for 10 days. The day before administration is Day 0 and the weight and tumor size are determined approximately every 5 days to produce a plot on weight and tumor growth. On Day 27, the mice are dissected and the tumors are taken out and weighed. Based on a tumor inhibition rate of zero for the control group, the tumor inhibition rate (%) after the effect of the medicament is calculated.
(§1) The values determined are presented as mean±standard error (M±SD). The experimental data for each group are analyzed by the One-way ANOVA method of SPSS 18.0 Statistical Software, and p<0.05 is deemed as having statistically significant difference.

[2] = Body weight and toxicity in tumor-bearing NOD/SCID mice; assay type: in vivo; conditions: for Weight (g) Final / Weight (g) Initial: three times a day, 10 days; for Weight (g) Initial: initial (Day 0)
Experimental: (§2) Animal: NOD/SCID mice (multiple immunodeficiency mice), 8 weeks, female, purchased from Shanghai Laboratory Animal Center of Chinese Academy of Sciences, China.
(§3) BS-HH-002, wherein BS-HH-002-0.1 indicates a dosage of 0.1 mg/kg each time, and BS-HH-002-0.3 indicates a dosage of 0.3 mg/kg each time.
(§4) Under sterile conditions, the above tumor cells in the logarithmic growth phase are collected and injected in an amount of 5×10^7/0.2 ml/mice (cell viability>95%) by subcutaneous injection into the right subaxillary of NOD/SCID mice, thus establishing an NOD/SCID mice model bearing transplanted tumor of leukemia. The mice are administered on the third day after the inoculation, wherein the experimental groups are intragastrically administered in an experimentally designed amount and the negative control group is intragastrically administered with sterile water. Each mouse is intragastrically administered three times a day in 0.4 ml each time, at 8:00, 14:00 and 20:00 with 6-hour intervals, and is successively administered for 10 days. The day before administration is Day 0 and the weight and tumor size are determined approximately every 5 days to produce a dynamic plot on weight and tumor growth. On Day 31, the mice are dissected and the tumors are taken out and weighed. The tumor inhibition rate (%) after the application of medicament is determined based on the tumor inhibition rate of the control group being zero.
as §1

[3] = system: K562/adr (drug-resistant, chronic myeloid leukemia, CML); test: MTT growth inhibition of leukemia cells, 72 h; assay type: cell-based, human
Summary of the method: (§5)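 6000 cells per well in RPMI 1640 with 10% FBS were exposed to graded compound concentrations for 72 h at 37 °C, 5% CO2. Viable cells were measured by MTT, normalised to untreated control as 100%, and the 72 h IC50 was calculated.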

[4] = system: Jurkat (acute lymphoblastic leukemia, ALL); test: MTT growth inhibition of leukemia cells, 72 h; assay type: cell-based, human; conditions: Homo sapiens, Jurkat
Summary of the method: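 Jurkat human acute lymphoblastic leukemia cells were seeded at 6000 cells per well in 96-well plates containing 1640 medium with 10% fetal bovine serum. Test compounds were added across a range of concentrations, and plates were held at 37° C. in 5% CO2 for 72 hours before viable cells were quantified by MTT.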

[5] = system: H9 (acute lymphoblastic leukemia, ALL); test: MTT growth inhibition of leukemia cells, 72 h; assay type: cell-based, human
Summary of the method: as §5

[6] = system: RPMI8226 (multiple myeloma); test: MTT growth inhibition of multiple myeloma cells, 72 h; assay type: cell-based, human
Summary of the method: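 RPMI8226 cells (6000/well) in 1640 medium with 10% FBS were exposed to graded compound concentrations for 72 h at 37 °C, 5% CO2. Viable cells were read by MTT, normalised to untreated control as 100% viability, and 72 h IC50 calculated.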

[7] = system: Kasumi-1 transplanted tumor of leukemia; test: Inhibition of transplanted tumor of leukemia in NOD/SCID mice; assay type: in vivo; conditions: for Mass of tumor / Tumor Inhibition rate (%): Kasumi-1 in NOD/SCID mice, three times a day, 10 days, Day 31
Experimental: Leukemia cell lines: Kasumi-1 (acute myeloid leukemia M2 type, AML-M2)
as §2, §3, §4, §1

[8] = 0.1 mg/kg/time, 1 time/day intragastric
[9] = 0.1 mg/kg/time, 2 times/day intragastric
[10] = 0.1 mg/kg/time, 3 times/day intragastric
[11] = 0.3 mg/kg/time, 1 time/day intragastric
[12] = 0.5 mg/kg/time, 1 time/day intragastric
[13] = 0.5 mg/kg/time, 2 times/day intragastric
[14] = 0.5 mg/kg/time, 3 times/day intragastric
[15] = 1.0 mg/kg/time, 1 time/day intragastric
[16] = 1.0 mg/kg/time, 3 times/day intragastric

COC(=O)C[C@](O)(CCCC(C)(C)OC(C)=O)C(=O)O[C@@H]1C(OC)=C[C@]23CCCN2CCc2cc4c(cc2[C@H]13)OCO4 [BS-HH-002, 6-acetylhomoharringtonine]
tumor inhibition rate on gastric cancer ([1]; BALB/c-nu nude mice, all dosing regimes 0.1-1.0 mg/kg): more than 40%
Mass of tumor [1, 8]: 0.40 ± 0.18 g
Tumor Inhibition rate (%) [1, 8]: 48.97%
Mass of tumor [1, 9]: 0.46 ± 0.11 g
Tumor Inhibition rate (%) [1, 9]: 40.90%
Mass of tumor [1, 10]: 0.41 ± 0.09 g
Tumor Inhibition rate (%) [1, 10]: 48.14%
Mass of tumor [1, 11]: 0.38 ± 0.13 g
Tumor Inhibition rate (%) [1, 11]: 51.76%
Mass of tumor [1, 12]: 0.44 ± 0.13 g
Tumor Inhibition rate (%) [1, 12]: 43.81%
Mass of tumor [1, 13]: 0.44 ± 0.18 g
Tumor Inhibition rate (%) [1, 13]: 43.43%
Mass of tumor [1, 14]: 0.37 ± 0.18 g
Tumor Inhibition rate (%) [1, 14]: 52.12%
Mass of tumor [1, 15]: 0.43 ± 0.17 g
Tumor Inhibition rate (%) [1, 15]: 44.58%
Mass of tumor [1, 16]: 0.34 ± 0.05 g
Tumor Inhibition rate (%) [1, 16]: 56.67%
Weight (g) Final ([2]; 0.1 mg/kg/time intragastric): 26.7 ± 1.92 g
Weight (g) Initial ([2]; 0.1 mg/kg/time intragastric): 21.48 ± 0.05 g
Weight (g) Final ([2]; 0.3 mg/kg/time intragastric): 27.45 ± 2.48 g
Weight (g) Initial ([2]; 0.3 mg/kg/time intragastric): 22.45 ± 0.13 g
toxic or side effect ([2]; 0.1 and 0.3 mg/kg each time): does not have any obvious toxic or side effect; also recorded: does not demonstrate an obvious toxicity
impact on animal weight ([2]; initial vs final weight): does not have substantial impact on animal weight
IC50 ([3]; Homo sapiens, K562/Adr, MTT): 0.015 µg/mL (≈ 0.0255 µM)
IC90 ([3]; Homo sapiens, K562/Adr, MTT): 0.31 µg/mL (≈ 0.528 µM)
improvement of anti-K562/adr activity compared with homoharringtonine ([3]; vs HHT): more than 3.2 fold
IC50 [4]: 0.003 µg/mL (≈ 0.0051 µM)
IC90 [4]: ≥ 16 µg/mL
IC50 ([5]; Homo sapiens, MTT): 0.004 µg/mL (≈ 0.00681 µM)
IC90 ([5]; Homo sapiens, MTT): 0.01 µg/mL (≈ 0.017 µM)
improvement of anti-H9 activity compared with homoharringtonine ([5]; vs HHT): more than 5 fold
anti-RPMI8226 (multiple myeloma) effectiveness [6]: particularly effective
IC50 ([6]; Homo sapiens, RPMI-8226, MTT): 0.003 µg/mL (≈ 0.0051 µM)
IC90 ([6]; Homo sapiens, RPMI-8226, MTT): 0.018 µg/mL (≈ 0.0306 µM)
Mass of tumor ([7]; 0.1 mg/kg/time intragastric): 1.67 ± 0.36 g
Tumor Inhibition rate (%) ([7]; 0.1 mg/kg/time intragastric): 43.31%
Mass of tumor ([7]; 0.3 mg/kg/time intragastric): 1.60 ± 0.75 g
Tumor Inhibition rate (%) ([7]; 0.3 mg/kg/time intragastric): 45.74%
tumor inhibition effect on transplanted tumor of leukemia ([7]; NOD/SCID mice, FIG. 5 tumor growth curve): remarkable tumor inhibition effect
effect on weight of the transplanted tumor of leukemia ([7]; NOD/SCID mice, FIG. 6): substantially reduced
inhibition rate of transplanted tumor of leukemia ([7]; NOD/SCID mice, dosage of both 0.1 and 0.3 mg/kg): over 40%
